One assay has as its target LOK/STK10 (Homo sapiens, UniProt O94804). The assay can be described thus: HotSpot Kinase Assay, LOK/STK10.
A further assay has as its target DDR1 (Homo sapiens, UniProt Q08345). Description: HotSpot Kinase Assay, DDR1.
For the next assay, the target named is FMS (Homo sapiens, UniProt P07333). Description: HotSpot Kinase Assay, FMS.
The next assay deals with T1, TYRO3/SKY (Homo sapiens, UniProt Q06418).
T1 sequence (Q06418 41-890): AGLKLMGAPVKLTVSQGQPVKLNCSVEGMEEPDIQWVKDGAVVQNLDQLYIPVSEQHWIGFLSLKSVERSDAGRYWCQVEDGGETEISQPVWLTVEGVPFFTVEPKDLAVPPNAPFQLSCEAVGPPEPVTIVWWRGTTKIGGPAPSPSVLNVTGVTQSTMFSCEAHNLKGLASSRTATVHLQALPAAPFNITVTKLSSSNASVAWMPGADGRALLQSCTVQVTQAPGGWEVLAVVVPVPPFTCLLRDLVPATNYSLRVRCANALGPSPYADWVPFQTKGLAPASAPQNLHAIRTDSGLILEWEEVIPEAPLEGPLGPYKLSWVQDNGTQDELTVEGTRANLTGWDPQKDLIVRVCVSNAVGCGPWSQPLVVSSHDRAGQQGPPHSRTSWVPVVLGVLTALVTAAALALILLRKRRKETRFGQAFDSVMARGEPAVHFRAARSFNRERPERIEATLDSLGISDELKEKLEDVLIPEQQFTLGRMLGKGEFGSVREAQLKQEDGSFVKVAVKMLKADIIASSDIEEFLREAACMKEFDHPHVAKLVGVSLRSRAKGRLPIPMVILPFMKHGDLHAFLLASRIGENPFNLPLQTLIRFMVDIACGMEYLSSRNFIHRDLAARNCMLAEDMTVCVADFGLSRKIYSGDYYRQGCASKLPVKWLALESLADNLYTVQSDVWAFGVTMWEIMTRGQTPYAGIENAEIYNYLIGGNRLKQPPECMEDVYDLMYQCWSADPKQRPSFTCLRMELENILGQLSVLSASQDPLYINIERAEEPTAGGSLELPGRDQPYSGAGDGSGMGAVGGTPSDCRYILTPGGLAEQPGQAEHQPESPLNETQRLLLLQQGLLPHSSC
Description: HotSpot Kinase Assay, TYRO3/SKY.

Another assay addresses EPHA2 (Homo sapiens, UniProt P29317). Description: HotSpot Kinase Assay, EPHA2.
The next assay addresses KDR/VEGFR2 (Homo sapiens, UniProt P35968). Description: HotSpot Kinase Assay, KDR/VEGFR2.
The target in a further assay is T2, c-MER (Homo sapiens, UniProt Q12866).
T2 sequence (Q12866 21-999): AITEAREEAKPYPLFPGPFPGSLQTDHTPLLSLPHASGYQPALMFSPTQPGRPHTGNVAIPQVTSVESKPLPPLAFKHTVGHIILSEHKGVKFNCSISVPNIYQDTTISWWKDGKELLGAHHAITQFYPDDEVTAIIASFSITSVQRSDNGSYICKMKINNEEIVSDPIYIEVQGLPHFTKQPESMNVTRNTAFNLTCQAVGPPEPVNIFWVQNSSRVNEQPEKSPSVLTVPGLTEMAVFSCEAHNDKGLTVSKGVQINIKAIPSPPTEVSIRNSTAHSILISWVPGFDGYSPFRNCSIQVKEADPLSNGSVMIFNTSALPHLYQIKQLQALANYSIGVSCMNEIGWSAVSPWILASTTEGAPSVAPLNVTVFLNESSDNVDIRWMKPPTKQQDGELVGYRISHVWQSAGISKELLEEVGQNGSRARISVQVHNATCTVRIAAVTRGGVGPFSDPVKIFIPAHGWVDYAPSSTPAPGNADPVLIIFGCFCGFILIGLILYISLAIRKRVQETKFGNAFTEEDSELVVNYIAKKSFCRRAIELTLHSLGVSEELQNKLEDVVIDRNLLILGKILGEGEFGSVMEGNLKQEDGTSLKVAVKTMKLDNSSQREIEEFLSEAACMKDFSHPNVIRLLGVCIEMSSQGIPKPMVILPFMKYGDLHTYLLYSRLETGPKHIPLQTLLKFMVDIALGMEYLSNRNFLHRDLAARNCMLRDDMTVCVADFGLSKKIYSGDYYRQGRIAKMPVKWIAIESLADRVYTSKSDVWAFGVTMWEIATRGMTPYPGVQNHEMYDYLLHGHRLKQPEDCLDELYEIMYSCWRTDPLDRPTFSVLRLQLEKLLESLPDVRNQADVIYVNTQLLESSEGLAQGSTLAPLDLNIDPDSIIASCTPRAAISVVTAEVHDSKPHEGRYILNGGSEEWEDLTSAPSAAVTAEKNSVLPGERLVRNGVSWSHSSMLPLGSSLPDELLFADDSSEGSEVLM
The assay can be described thus: HotSpot Kinase Assay, c-MER.

The target of the next assay is c-Kit (Homo sapiens, UniProt P10721). The assay can be described thus: HotSpot Kinase Assay, c-Kit.
The target in the next assay is T3, AXL (Homo sapiens, UniProt P30530).
T3 sequence (P30530 26-894): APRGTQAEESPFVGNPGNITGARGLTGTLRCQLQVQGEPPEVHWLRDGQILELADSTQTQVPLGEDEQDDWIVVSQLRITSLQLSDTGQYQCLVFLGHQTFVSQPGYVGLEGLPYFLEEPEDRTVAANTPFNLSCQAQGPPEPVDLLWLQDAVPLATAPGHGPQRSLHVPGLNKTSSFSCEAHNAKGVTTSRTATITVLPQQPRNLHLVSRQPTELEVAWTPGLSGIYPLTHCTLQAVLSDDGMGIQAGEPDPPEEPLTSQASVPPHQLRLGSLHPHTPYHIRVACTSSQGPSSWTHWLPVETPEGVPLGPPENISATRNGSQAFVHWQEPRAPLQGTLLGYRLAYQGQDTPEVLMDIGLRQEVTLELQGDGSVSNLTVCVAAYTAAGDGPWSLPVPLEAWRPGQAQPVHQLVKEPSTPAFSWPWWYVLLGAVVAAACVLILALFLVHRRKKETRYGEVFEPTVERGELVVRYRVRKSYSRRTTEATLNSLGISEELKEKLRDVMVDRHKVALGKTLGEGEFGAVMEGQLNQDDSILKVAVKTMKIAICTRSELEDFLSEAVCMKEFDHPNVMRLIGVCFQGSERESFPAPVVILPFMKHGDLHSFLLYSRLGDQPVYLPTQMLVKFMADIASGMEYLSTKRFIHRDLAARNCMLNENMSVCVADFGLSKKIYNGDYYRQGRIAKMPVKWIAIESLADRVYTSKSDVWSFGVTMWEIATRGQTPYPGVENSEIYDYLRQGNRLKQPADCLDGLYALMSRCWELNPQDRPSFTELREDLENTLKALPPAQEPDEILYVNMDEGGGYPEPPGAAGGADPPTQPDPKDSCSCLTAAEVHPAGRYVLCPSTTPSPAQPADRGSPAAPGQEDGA
Description: HotSpot Kinase Assay, AXL.

Another assay has as its target c-MET (Homo sapiens, UniProt P08581). The assay can be described thus: HotSpot Kinase Assay, c-MET.

Each structure is given as a SMILES string.

c-MET, sequence (P08581 25-1390): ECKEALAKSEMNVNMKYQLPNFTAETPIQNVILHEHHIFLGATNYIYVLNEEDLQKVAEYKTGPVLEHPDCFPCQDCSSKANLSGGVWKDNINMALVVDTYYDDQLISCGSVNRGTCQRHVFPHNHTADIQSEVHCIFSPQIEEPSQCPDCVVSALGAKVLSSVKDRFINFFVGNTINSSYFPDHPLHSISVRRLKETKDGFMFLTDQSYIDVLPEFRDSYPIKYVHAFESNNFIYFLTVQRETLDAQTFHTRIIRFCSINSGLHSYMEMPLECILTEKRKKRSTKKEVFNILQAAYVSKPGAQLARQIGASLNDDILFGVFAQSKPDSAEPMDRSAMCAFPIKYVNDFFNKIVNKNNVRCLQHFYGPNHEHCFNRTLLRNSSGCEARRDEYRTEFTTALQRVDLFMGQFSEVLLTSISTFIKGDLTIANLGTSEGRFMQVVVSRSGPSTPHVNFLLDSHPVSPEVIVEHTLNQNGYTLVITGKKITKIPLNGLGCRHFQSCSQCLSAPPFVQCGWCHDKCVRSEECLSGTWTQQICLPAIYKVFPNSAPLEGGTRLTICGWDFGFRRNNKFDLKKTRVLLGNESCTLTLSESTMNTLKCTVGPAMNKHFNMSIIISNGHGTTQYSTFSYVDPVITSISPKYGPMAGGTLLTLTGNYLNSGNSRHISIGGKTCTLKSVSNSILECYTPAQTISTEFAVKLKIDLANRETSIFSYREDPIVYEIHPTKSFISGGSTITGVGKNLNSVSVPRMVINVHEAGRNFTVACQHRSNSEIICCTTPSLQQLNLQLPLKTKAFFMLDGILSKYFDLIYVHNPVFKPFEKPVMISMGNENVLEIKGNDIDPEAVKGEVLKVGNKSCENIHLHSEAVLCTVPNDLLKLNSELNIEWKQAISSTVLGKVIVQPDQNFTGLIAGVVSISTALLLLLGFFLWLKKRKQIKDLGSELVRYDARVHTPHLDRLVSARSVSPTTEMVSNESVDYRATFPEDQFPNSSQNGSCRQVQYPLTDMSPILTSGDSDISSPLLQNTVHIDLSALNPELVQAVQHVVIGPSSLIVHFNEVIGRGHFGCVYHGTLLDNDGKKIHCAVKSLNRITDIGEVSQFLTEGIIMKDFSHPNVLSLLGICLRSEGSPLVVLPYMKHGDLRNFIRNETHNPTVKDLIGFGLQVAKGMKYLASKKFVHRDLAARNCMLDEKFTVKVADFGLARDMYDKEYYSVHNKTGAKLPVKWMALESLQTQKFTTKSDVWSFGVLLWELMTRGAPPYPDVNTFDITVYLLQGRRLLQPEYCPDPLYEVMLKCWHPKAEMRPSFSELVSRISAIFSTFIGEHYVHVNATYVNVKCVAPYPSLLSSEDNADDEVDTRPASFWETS
DDR1, sequence (Q08345 19-913): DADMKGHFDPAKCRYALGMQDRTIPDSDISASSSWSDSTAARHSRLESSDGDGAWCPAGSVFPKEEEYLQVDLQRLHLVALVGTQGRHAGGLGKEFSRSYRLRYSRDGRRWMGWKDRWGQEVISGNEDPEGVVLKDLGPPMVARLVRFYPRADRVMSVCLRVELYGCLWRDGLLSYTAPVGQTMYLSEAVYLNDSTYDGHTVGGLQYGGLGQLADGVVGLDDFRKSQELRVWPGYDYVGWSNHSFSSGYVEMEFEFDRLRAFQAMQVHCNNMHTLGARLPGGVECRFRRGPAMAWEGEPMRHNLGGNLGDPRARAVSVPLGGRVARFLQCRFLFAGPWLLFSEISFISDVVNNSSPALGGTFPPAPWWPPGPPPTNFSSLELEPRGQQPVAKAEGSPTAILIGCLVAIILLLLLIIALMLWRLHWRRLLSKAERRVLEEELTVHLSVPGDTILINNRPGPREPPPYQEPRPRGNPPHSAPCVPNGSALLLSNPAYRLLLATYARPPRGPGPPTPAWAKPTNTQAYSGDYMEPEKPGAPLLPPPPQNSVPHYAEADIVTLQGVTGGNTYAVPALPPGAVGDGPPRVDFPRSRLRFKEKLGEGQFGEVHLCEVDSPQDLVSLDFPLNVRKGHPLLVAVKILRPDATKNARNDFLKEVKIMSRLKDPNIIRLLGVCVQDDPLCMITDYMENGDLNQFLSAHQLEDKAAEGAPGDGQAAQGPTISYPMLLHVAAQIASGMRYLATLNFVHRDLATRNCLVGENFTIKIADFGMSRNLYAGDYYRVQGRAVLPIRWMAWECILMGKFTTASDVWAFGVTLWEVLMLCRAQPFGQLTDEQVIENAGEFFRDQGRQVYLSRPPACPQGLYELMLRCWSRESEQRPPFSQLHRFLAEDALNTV
EPHA2, sequence (P29317 24-976): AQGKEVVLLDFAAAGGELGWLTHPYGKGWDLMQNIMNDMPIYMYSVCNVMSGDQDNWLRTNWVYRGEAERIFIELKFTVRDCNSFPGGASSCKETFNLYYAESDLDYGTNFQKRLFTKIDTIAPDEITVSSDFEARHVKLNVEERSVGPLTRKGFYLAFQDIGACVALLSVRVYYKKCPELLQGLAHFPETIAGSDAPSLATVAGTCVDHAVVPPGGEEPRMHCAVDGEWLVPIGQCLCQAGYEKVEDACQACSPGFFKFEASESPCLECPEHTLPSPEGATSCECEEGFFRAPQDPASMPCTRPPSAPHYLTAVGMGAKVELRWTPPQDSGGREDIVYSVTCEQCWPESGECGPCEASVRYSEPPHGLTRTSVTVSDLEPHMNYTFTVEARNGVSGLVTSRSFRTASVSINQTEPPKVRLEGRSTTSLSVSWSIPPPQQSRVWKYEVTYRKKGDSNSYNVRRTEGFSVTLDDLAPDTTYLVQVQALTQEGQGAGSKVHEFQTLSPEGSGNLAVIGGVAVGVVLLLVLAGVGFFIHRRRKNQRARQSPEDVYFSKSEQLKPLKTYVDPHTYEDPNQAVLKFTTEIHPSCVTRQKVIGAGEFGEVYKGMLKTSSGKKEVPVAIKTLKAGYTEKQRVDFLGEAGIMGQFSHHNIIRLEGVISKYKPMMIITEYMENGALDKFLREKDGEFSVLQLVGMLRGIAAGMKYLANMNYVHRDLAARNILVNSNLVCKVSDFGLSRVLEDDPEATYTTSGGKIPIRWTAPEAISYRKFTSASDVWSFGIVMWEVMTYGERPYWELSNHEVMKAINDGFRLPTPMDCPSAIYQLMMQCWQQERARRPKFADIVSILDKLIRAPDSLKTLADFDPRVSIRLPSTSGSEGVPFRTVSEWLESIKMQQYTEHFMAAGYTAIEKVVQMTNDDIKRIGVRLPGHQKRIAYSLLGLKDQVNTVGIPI
c-Kit, sequence (P10721 26-976): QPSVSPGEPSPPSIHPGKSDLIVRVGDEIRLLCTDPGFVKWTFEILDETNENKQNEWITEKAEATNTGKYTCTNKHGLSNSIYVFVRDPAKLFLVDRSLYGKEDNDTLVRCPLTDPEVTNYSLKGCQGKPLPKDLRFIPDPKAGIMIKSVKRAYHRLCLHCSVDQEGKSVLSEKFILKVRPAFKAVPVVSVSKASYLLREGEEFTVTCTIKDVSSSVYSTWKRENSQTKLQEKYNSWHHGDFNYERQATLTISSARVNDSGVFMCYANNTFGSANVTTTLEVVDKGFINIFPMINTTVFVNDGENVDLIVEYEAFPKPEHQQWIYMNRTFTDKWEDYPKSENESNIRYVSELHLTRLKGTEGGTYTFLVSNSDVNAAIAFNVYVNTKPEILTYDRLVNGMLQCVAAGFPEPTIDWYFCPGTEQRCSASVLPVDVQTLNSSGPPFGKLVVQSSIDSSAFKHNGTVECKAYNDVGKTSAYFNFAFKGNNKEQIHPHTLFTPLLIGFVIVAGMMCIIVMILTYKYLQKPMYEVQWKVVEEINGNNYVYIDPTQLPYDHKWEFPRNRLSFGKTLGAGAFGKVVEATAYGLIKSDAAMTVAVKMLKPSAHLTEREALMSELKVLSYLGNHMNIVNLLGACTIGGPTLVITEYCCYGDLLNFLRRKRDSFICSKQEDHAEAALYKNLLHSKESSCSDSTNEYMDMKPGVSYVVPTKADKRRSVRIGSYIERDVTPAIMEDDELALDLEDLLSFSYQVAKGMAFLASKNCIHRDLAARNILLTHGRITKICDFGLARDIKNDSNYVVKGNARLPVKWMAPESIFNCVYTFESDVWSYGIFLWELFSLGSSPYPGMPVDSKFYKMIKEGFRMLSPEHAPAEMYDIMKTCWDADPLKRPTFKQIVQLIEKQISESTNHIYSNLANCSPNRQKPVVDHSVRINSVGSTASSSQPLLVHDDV
FMS, sequence (P07333 20-972): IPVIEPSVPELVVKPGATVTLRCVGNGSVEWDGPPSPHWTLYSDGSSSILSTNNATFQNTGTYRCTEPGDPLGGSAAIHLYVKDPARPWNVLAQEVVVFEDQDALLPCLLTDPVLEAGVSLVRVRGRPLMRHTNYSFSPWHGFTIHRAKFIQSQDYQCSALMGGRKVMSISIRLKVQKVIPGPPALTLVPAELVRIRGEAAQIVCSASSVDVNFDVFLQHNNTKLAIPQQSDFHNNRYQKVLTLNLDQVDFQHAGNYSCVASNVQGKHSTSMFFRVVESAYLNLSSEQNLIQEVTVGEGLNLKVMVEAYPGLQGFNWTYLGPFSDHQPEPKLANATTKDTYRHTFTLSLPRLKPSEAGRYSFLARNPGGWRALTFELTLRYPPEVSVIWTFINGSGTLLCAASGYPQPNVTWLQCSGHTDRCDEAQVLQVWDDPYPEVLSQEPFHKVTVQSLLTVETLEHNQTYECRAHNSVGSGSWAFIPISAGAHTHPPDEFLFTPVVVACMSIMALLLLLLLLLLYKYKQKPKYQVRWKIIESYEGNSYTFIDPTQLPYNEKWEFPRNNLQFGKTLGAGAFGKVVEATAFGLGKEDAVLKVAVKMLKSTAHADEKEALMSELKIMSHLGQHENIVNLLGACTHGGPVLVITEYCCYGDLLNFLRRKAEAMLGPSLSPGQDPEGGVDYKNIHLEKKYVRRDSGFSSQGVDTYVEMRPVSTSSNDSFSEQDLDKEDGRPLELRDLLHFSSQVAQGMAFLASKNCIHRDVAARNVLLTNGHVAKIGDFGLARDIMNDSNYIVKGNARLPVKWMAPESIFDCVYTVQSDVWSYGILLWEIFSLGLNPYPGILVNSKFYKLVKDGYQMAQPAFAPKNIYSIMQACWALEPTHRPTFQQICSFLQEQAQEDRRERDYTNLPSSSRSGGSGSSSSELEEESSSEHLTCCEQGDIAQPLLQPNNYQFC
Description for DDR1: (§1) Specifically, for each reaction, kinase and substrate were mixed in a pH 7.5 buffer containing 20 mM HEPES, 10 mM MgCl2, 1 mM EGTA [Ethylene glycol-bis(2-aminoethylether)-N,N,N′,N′-tetraacetic acid], 0.02% Brij35, 0.02 mg/mL BSA (Bovine Serum Albumin), 0.1 mM Na3VO4, 2 mM DTT, and 1% DMSO. Compounds were then added to each reaction mixture. After a 20-min incubation, ATP (Sigma-Aldrich) and [γ-^33P] ATP (PerkinElmer) were added at a final total concentration of 100 μM. Reactions were carried out at room temperature for 2 hours and spotted onto P81 ion exchange cellulose chromatography paper (Whatman). […] The percent remaining kinase activity relative to a vehicle-containing (DMSO) kinase reaction was calculated for each kinase/inhibitor pair. […] IC50 values were calculated using Prism 5 (GraphPad).
Description for EPHA2: as §1
Description for FMS: as §1
Description for LOK/STK10: as §1
Description for c-Kit: as §1
Description for c-MET: as §1

Broadly, the IC50 is the concentration needed to halve the response being measured. Higher therefore signals weaker potency. Take `COc1cc2c(Oc3ccc(NC(=O)C4(C(=O)Nc5ccc(F)cc5)CC4)cc3)ccnc2cc1OC(=O)N1CCNCC1(C)C` [Compound 6-5]: the IC50 at LOK/STK10 is 100 to 1000 nM; at DDR1 it was less than 100 nM; on FMS it was 100 to 1000 nM; against TYRO3/SKY, 100 to 1000 nM; against EPHA2 it was 100 to 1000 nM; on KDR/VEGFR2, more than 1000 nM. The IC50 at c-MER, against c-Kit, at AXL and at c-MET was less than 100 nM each time.
Turning to `COc1cc2c(Oc3ccc(NC(=O)C4(C(=O)Nc5ccc(F)cc5)CC4)cc3)ccnc2cc1OC(=O)N1[C@H](C)CN(C)C[C@@H]1C` [Compound 6-3], the IC50 against LOK/STK10 was 100 to 1000 nM; at DDR1, less than 100 nM; at FMS it was 100 to 1000 nM; against TYRO3/SKY it was 100 to 1000 nM; on EPHA2 it was 100 to 1000 nM; at KDR/VEGFR2, 100 to 1000 nM. Further, the IC50 was less than 100 nM against c-MER, less than 100 nM on c-Kit, less than 100 nM at AXL and 100 to 1000 nM at c-MET.
As for `COc1cc2c(Oc3ccc(NC(=O)C4(C(=O)Nc5ccc(F)cc5)CC4)cc3)ccnc2cc1OC(=O)N1CCN(C)[C@@H](C)C1` [Compound 2-3], the IC50 was 100 to 1000 nM on LOK/STK10; less than 100 nM on DDR1; less than 100 nM at FMS; 100 to 1000 nM at TYRO3/SKY; 100 to 1000 nM against EPHA2; 100 to 1000 nM against KDR/VEGFR2. The IC50 against c-MER, at c-Kit, against AXL and on c-MET was less than 100 nM in each case.
In the case of `COc1cc2c(Oc3ccc(NC(=O)C4(C(=O)Nc5ccc(F)cc5)CC4)cc3)ncnc2cc1OC(=O)N1CCNC[C@H]1C` [Compound 8-5], the IC50 against LOK/STK10 was more than 1000 nM; against DDR1, less than 100 nM; against FMS it was 100 to 1000 nM; on TYRO3/SKY, 100 to 1000 nM; against EPHA2 it was more than 1000 nM; against KDR/VEGFR2, more than 1000 nM. In addition, the IC50 on c-MER is 100 to 1000 nM; at c-Kit, less than 100 nM; on AXL, 100 to 1000 nM; against c-MET, 100 to 1000 nM.
For the compound `COc1cc2c(Oc3ccc(NC(=O)C4(C(=O)Nc5ccc(F)cc5)CC4)cc3)ccnc2cc1OC(=O)N1CCN(C)C[C@@H]1C` [Compound 1-12], the IC50 on LOK/STK10 is 100 to 1000 nM; on DDR1 it was less than 100 nM; at FMS, 100 to 1000 nM; on TYRO3/SKY, 100 to 1000 nM; against EPHA2, 100 to 1000 nM; on KDR/VEGFR2, 100 to 1000 nM. For the same compound, the IC50 on c-MER, at c-Kit, on AXL and against c-MET was less than 100 nM each time.
As to `COc1cc2c(Oc3ccc(NC(=O)C4(C(=O)Nc5ccc(F)cc5)CC4)cc3)ncnc2cc1OC(=O)N1CCN(C)C[C@H]1C` [Compound 8-6, 4-(4-(1-((4-fluorophenyl)carbamoyl)cyclopropane-1-carboxamido)phenoxy)-6-methoxyquinazolin-7-yl (R)-2,4-methylpiperazine-1-carboxylate], the IC50 against LOK/STK10 is more than 1000 nM; on DDR1, less than 100 nM; at FMS it was 100 to 1000 nM; on TYRO3/SKY, 100 to 1000 nM; on EPHA2 it was more than 1000 nM; on KDR/VEGFR2, more than 1000 nM. Also, the IC50 against c-MER, against c-Kit, against AXL and on c-MET was 100 to 1000 nM each time.
Consider `COc1cc2nccc(Oc3ccc(NC(=O)C4(C(=O)Nc5ccc(F)cc5)CC4)cc3)c2cc1OC(=O)N1CCN(C)CC1` [Compound 5-10], for which the 50% inhibitory concentration (IC50) on LOK/STK10 was 100 to 1000 nM; against DDR1 it was less than 100 nM; against FMS it was less than 100 nM; at TYRO3/SKY, less than 100 nM; against EPHA2, less than 100 nM; against KDR/VEGFR2, less than 100 nM. In addition, the IC50 on c-MER, on c-Kit, against AXL and on c-MET was less than 100 nM throughout.
On to `COc1cc2nccc(Oc3ccc(NC(=O)C4(C(=O)Nc5ccc(F)cc5)CC4)cc3)c2cc1OC(=O)N1[C@H](C)CN(C)C[C@@H]1C` [Compound 7-5], for which the IC50 is 100 to 1000 nM against LOK/STK10; less than 100 nM at DDR1; less than 100 nM against FMS; less than 100 nM at TYRO3/SKY; 100 to 1000 nM against EPHA2; less than 100 nM against KDR/VEGFR2. Besides, the IC50 against c-MER, at c-Kit, against AXL and against c-MET was less than 100 nM each time.
Turning to `COc1cc2c(Oc3ccc(NC(=O)C4(C(=O)Nc5ccc(F)cc5)CC4)cc3F)ccnc2cc1OC(=O)N1CCN(C)C[C@@H]1C` [Compound 3-6], the IC50 against LOK/STK10 is 100 to 1000 nM; on DDR1 it was less than 100 nM; against FMS it was 100 to 1000 nM; at TYRO3/SKY, 100 to 1000 nM; against EPHA2, less than 100 nM; against KDR/VEGFR2, 100 to 1000 nM. Besides, the IC50 was less than 100 nM against c-MER, 100 to 1000 nM on c-Kit, less than 100 nM on AXL and less than 100 nM against c-MET.

(Values after US11358949B2, “Carbamate and urea compounds as multikinase inhibitors” (ANGEX PHARMACEUTICAL, INC., priority 2017, dated 2022).)
